Patent US10752584B2 (EMORY UNIVERSITY, priority 2016, dated 2020)

Legend:
Type in all cases: cell-based
[1] = Cellular toxicity assay in human PBM cells; details: human, human PBM cells, read-out: Cytotoxicity
Summary of the method: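 Compound toxicity was tested in cultured cells, with cycloheximide as positive cytotoxic control and solvent-exposed untreated cells as negative control. Cytotoxicity IC50 came from the concentration-response curve by the median effective method.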

[2] = Cellular toxicity assay in CEM cells; details: human, CEM lymphoblastoid cells, read-out: Cytotoxicity
Description: The toxicity of the compounds was assessed in Vero, human PBM, CEM (human lymphoblastoid), MT-2, and HepG2 cells, as described previously (see Schinazi R. F., Sommadossi J.-P., Saalmann V., Cannon D. L., Xie M.-Y., Hart G. C., Smith G. A. & Hahn E. F. Antimicrob. Agents Chemother. 1990, 34, 1061-67). Cycloheximide was included as positive cytotoxic control, and untreated cells exposed to solvent were included as negative controls. The cytotoxicity IC50 was obtained from the concentration-response curve using the median effective method described previously (see Chou T.-C. & Talalay P. Adv. Enzyme Regul. 1984, 22, 27-55; Belen'kii M. S. & Schinazi R. F. Antiviral Res. 1994, 25, 1-11).

[3] = tested on: mitochondrial DNA (COXII gene) in HepG2 cells; assay: Mitochondrial toxicity assay in HepG2 cells: mitochondrial DNA
From the text: (§1) A real-time PCR assay to accurately quantify mitochondrial DNA content has been developed (see Stuyver L J, Lostia S, Adams M, Mathew J S, Pai B S, Grier J, Tharnish P M, Choi Y, Chong Y, Choo H, Chu C K, Otto M J, Schinazi R F. Antiviral activities and cellular toxicities of modified 2′,3′-dideoxy-2′,3′-didehydrocytidine analogs. Antimicrob. Agents Chemother. 2002; 46: 3854-60). This assay was used in all studies described in this application that determine the effect of compounds on mitochondrial DNA content. In this assay, low-passage-number HepG2 cells were seeded at 5,000 cells/well in collagen-coated 96-well plates. Test compounds were added to the medium to obtain final concentrations of 0 μM, 0.1 μM, 10 μM and 100 μM. On culture day 7, cellular nucleic acids were prepared by using commercially available columns (RNeasy 96 kit; Qiagen). […] The mitochondrial cytochrome c oxidase subunit II (COXII) gene and the β-actin or rRNA gene were amplified from 5 μl of the eluted nucleic acids using a multiplex Q-PCR protocol with suitable primers and probes for both target and reference amplifications. For COXII the following sense, probe and antisense primers were used, respectively: 5′-TGCCCGCCATCATCCTA-3′, 5′-tetrachloro-6-carboxyfluorescein-[…]-TAMRA-3′ and 5′-[…]-3′. For exon 3 of the β-actin gene (GenBank accession number E01094) the sense, probe, and antisense primers are 5′-GCGCGGCTACAGCTTCA-3′, 5′-6-[…]-3′ and 5′-[…]-3′, respectively. The primers and probes for the rRNA gene are commercially available from Applied Biosystems. Since equal amplification efficiencies are obtained for all genes, the comparative CT method was used to investigate potential inhibition of mitochondrial DNA synthesis. The comparative CT method uses arithmetic formulas in which the amount of target (COXII gene) is normalized to the amount of an endogenous reference (the β-actin or rRNA gene) and is relative to a calibrator (a control with no drug at day 7). The arithmetic formula for this approach is given by 2−ΔΔCT, where ΔΔCT is (CT for average target test sample CT for target control)−(CT for average reference test−CT for reference control) (see Johnson M R, K Wang, J B Smith, M J Heslin, R B Diasio. Quantitation of dihydropyrimidine dehydrogenase expression by real-time reverse transcription polymerase chain reaction. Anal. Biochem. 2000; 278:175-184). A decrease in mitochondrial DNA content in cells grown in the presence of drug indicated mitochondrial toxicity.
(§2) The effect of compounds 7 and 9 on the levels of mitochondrial and nuclear DNA, and lactic acid production was evaluated in HepG2 cells (14-day assay), and the data is tabulated below in Table 2: […]

[4] = tested on: nuclear DNA in HepG2 cells; assay: Mitochondrial toxicity assay in HepG2 cells: nuclear DNA; details: Homo sapiens
From the text: as §1, §2

HepG2 cells = assay: Lactic acid production in HepG2 cells; details: 14-day assay
Description: To measure the effects of the compounds on lactic acid production, HepG2 cells from a stock culture were diluted and plated in 12-well culture plates at 2.5×10^4 cells per well. Various concentrations (0 μM, 0.1 μM, 1 μM, 10 μM and 100 μM) of compound were added, and the cultures were incubated at 37° C. in a humidified 5% CO2 atmosphere for 4 days. At day 4, the number of cells in each well was determined and the culture medium collected. The culture medium was then filtered, and the lactic acid content in the medium was determined using a colorimetric lactic acid assay (Sigma-Aldrich). Since lactic acid product can be considered a marker for impaired mitochondrial function, elevated levels of lactic acid production detected in cells grown in the presence of test compounds would indicate a drug-induced cytotoxic effect.
as §2

wild type HBV = assay: Anti-HBV assay in AD-38 cell line; details: Hepatitis B virus, AD-38 cells, HBV in culture supernatant

`C#CCNC(=O)C(=O)c1c(C)c(C(=O)Nc2ccc(F)c(F)c2)n(C)c1C` [Compound 7a, 4-[(Propargylamino)(oxo)acetyl]-N-(3,4-difluorophenyl)-1,3,5-trimethyl-1H-pyrrole-2-carboxamide] showed a CC50 [1] of over 100 µM, a CC50 [2] of over 100 µM and an inhibition at 10 µM ([3]; Homo sapiens, HepG2, 336 h, read-out: % inhibition MtDNA) of under 1%. For the same compound, the IC50 ([3]; Homo sapiens, HepG2, 336 h, read-out: IC50 MtDNA) was over 50 µM, the “MtDNA (% of control)” value ([3]; human, 14 day, 10 μM) was 110 (100-121) % of control and the IC50 ([4]; 336 h, HepG2 cells, 14-day assay) was over 50 µM. For the same compound, the inhibition at 10 µM ([4]; 336 h, HepG2 cells, 14-day assay, 10 μM, read-out: % inhibition nDNA) was 5.4%, the inhibition at 25 µM ([4]; 336 h, HepG2 cells, 14-day assay, 25 μM, read-out: % inhibition nDNA) was under 1% and the inhibition at 50 µM ([4]; HepG2, 336 h, read-out: % inhibition nDNA) was 13.1%. For the same compound, the “Lactic acid production (% of control)” value (HepG2 cells; 10 μM) was 103 ± 32.0 % of control, the “Lactic acid production (% of control)” value (HepG2 cells; 25 μM) was 106 ± 19.5 % of control and the “Lactic acid production (% of control)” value (HepG2 cells; 50 μM) was 193 ± 12.6 % of control. It also gave an EC50 (wild type HBV; read-out: Anti-HBV activity EC50) of 0.001 to 0.009 µM and an EC90 (wild type HBV; read-out: Anti-HBV activity EC90) of 0.01 to 0.09 µM.
